Experimental data taken from patent publication US20230364118A1, “RIBITOL TREATMENT” (priority 2020, published 2023).
Several values for one entry are separate records, joined by “and”; a condition that tells them apart may be missing. Equal entries are not always repeated. Where two headings read alike, the source gives them in different places.

What was measured:
[1] = Functional observational battery (FOB)
Experimental: In this GLP study, the potential effects of ribitol on the CNS were evaluated in CD-1 mice utilizing the FOB. Male mice were randomly assigned to 4 groups of 8 and were administered a single oral dose of 0 (vehicle, purified water), 0.5, 1.0, or 2.0 g/kg ribitol. The FOB tests were conducted pre dose, and at 0.5, 1, 2, 4, and 24 hours post dose.

[2] = PK comparison QD, BID, TID oral dosing; format: in vivo; conditions: CD-1, mouse, plasma; for AUC(0-inf) / Cmax / half-life: po, 0.3 g/kg
Experimental: Each regimen was studied in 3 male and 3 female CD-1 mice. PK of ribitol following the final dose was compared among these three regimens. The first and the second subsets of mice receiving QD and BID of ribitol were bled at 0.5, 1, 2, 4, and 6 hours post QD dosing and the second dose of the BID dosing, respectively; the third subset of mice receiving TID of ribitol were bled at 0.5, 1, 2, 4 and 12 hours post the third dose.

in vivo = test: in vivo
Experimental: The purpose of this study was to determine the MTD following a single oral dose (Phase 1) and to characterize the toxicity and toxicokinetic profile following 7 days BID dosing with ribitol (Phase 2).
In Phase 1, Swiss Crl: CD1® mice (5/sex/group) were given ribitol at 0.3, 1.0, 1.5, or 2.0 g/kg/dose BID (0.6, 2.0, 3.0, or 4.0 g/kg/day) with 5 to 7 hours between doses. […] Mice were assessed for viability, clinical signs, body weight, food consumption, and macroscopic findings at necropsy.
Doses were selected for Phase 2 based on the Phase 1 study results and the intended highest clinical dose of 12.0 g/day. In Phase 2, mice (5/sex/group) were given oral doses of 0 (vehicle control, purified water), 0.5, 1.0, or 1.5 g/kg/dose ribitol BID (1.0, 2.0, 3.0 g/kg/day) with 6 hours between doses. Mice were assessed for viability, clinical signs, body weight, food consumption, clinical pathology (hematology and serum chemistry), organ weights (adrenal glands, brain, heart, kidneys, liver with gall bladder, ovaries, spleen, testes, and thymus), and macroscopic pathology at necropsy. Blood was taken from a satellite group of animals (3/sex/timepoint) for plasma TK analysis on Days 1 and 7.

[3] = 28-day oral GLP toxicity study with 14-day recovery; conditions: minipig
Experimental: The purpose of this GLP study was to assess the potential toxicity, reversibility, persistence, or delayed effects of ribitol in minipigs following 28 days of BID oral gavage dosing with a 14 day recovery period. In addition, the plasma TK profile of ribitol was evaluated on Days 1 and 28. Four Bama minipigs/sex/group were administered 0 (vehicle control, purified water), 0.1, 0.3, or 1.0 g/kg/dose ribitol by oral gavage BID (0.2, 0.6, 2.0 g/kg/day; 6 hours apart) for 28 days. In addition, 2 minipigs/sex/group were treated for 28 days with either vehicle (water) or 1.0 g/kg/dose ribitol BID (2.0 g/kg/day) followed by 14-day treatment-free recovery period. In-life assessments included mortality, clinical signs including detailed clinical observations pre-test and once weekly during the dosing and recovery phase, body weight, food consumption, ophthalmology, electrocardiography, and clinical pathology (hematology, coagulation, serum chemistry, and urinalysis). Terminal endpoints included macroscopic pathology, organ weights and histopathology. Blood was taken for plasma TK on Days 1 and 28.

[4] = male, Bama, minipig, in vivo, 24 h
Experimental: Minipigs received 0 (vehicle, purified water), 0.3, 1.0, or 2.0 g/kg of ribitol in a Latinsquare design on Days 1, 12, 17, and 25, respectively. […] Body weights were measured at baseline and on each dosing day. On each dosing occasion, ECG waveforms, heart rate, and blood pressure data were recorded from at least 2 hours prior to dose (to establish baseline values) to approximately 24 hours post-dose. ECG tracings of a minimum of 30 seconds duration were obtained from all minipigs twice prior to each dose (at least 30 minutes apart) and at 0.5, 2, 4, 8, 12, and 24 hours post dose.

hERG potassium channels = hERG potassium channels (Homo sapiens, UniProt Q12809); test: cell-based
hERG potassium channels, sequence (Q12809 whole entry): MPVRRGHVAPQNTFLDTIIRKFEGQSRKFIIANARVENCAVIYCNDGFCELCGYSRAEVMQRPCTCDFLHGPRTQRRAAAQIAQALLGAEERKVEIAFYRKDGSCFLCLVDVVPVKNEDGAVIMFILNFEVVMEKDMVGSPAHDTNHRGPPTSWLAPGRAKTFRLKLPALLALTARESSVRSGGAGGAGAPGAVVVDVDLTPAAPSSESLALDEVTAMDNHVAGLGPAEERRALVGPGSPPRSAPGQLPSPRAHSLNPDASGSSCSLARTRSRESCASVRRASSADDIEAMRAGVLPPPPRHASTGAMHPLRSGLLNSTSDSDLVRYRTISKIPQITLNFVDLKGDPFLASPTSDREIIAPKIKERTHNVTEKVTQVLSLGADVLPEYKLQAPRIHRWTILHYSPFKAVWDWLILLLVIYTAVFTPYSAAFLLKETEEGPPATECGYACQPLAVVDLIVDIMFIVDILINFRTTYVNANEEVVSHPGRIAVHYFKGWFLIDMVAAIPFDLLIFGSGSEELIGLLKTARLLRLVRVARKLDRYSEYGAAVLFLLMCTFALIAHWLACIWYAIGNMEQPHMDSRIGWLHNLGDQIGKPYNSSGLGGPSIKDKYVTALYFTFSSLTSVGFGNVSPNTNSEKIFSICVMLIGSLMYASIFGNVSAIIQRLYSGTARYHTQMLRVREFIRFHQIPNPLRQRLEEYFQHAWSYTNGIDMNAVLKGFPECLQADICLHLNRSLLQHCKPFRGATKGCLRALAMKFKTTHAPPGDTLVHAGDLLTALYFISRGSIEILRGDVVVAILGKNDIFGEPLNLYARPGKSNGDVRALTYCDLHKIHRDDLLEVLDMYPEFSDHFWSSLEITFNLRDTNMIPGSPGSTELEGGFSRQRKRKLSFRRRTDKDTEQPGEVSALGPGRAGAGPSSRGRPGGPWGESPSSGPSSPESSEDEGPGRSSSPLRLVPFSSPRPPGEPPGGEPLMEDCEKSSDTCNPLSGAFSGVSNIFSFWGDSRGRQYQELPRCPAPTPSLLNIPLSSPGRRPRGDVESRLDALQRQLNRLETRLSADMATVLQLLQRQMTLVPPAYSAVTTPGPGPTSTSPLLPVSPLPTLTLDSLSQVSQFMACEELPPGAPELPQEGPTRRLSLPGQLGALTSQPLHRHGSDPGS
Experimental: Therefore, the concentrations chosen for the definitive hERG assay were 0.1, 0.3, 1, and 3 mM, the detected concentrations of postperfusion solution were 0.101, 0.293, 0.999, and 2.90 mM, respectively.

[5] = In vitro permeability study; format: in vitro ADME; conditions: human, Caco-2, 300 μg/mL
Experimental: (§1) The absorption of ribitol was evaluated in Caco-2 cells at a concentration of 300 μg/mL. The apparent permeability values for apical (A)-to-basal (B) and B-to-A transport were <0.4 and […], respectively.

Caco-2 cells = test: In vitro permeability study; format: in vitro ADME
Experimental: as §1

[6] = Plasma protein binding, rapid equilibrium dialysis; format: in vitro ADME
Experimental: Protein binding studies with ribitol were performed in vitro using plasma from CD-1 mouse, Sprague-Dawley rat, Gottingen minipig, and human at 75 μg/mL (0.49 mM) and 200 μg/mL (1.31 mM) using the rapid equilibrium dialysis method. The percent of ribitol bound to plasma was approximately similar between the two concentrations tested in all species.

[7] = female, PO 0.3 g/kg/dose BID, last dose
[8] = female, PO 0.3 g/kg/dose TID, last dose
[9] = male, PO 0.3 g/kg/dose BID, last dose
[10] = male, PO 0.3 g/kg/dose TID, last dose

## OC[C@@H](O)[C@@H](O)[C@@H](O)CO [ribitol, (2R,3s,4S)-Pentane-1,2,3,4,5-pentol]
[1]; 0.5, 1.0, 2.0 g/kg, 0.5-24 h post dose
  treatment-related effects on FOB parameters: no treatment-related effects
[1]; male, CD-1, mouse, in vivo, 24 h
  safety margin for proposed clinical starting dose: 19 fold
[1]; single oral dose, male, highest dose tested
  NOEL, CNS effects (FOB): 2000 mg/kg
[2]; PO 0.3 g/kg QD, female
  Tmax: 30 min
[2]; PO 0.3 g/kg QD, male
  Tmax: 30 min
[2]; female, PO 0.3 g/kg QD
  AUC(0-inf): 47100 ng·h/mL
  Cmax: 33300 ng/mL
  half-life: 70.2 min
[2]; [7]
  AUC(0-inf): 48300 ng·h/mL
  Cmax: 28300 ng/mL
  half-life: 59 min
[2]; [8]
  AUC(0-inf): 40600 ng·h/mL
  Cmax: 43900 ng/mL
  half-life: 31.8 min
[2]; male, PO 0.3 g/kg QD
  AUC(0-inf): 45200 ng·h/mL
  Cmax: 34200 ng/mL
  half-life: 50.3 min
[2]; [9]
  AUC(0-inf): 49600 ng·h/mL
  Cmax: 27400 ng/mL
  half-life: 90 min
[2]; [10]
  AUC(0-inf): 28200 ng·h/mL
  Cmax: 31400 ng/mL
  half-life: 27.2 min
In vivo; Phase 1, up to 2.0 g/kg/dose BID (4.0 g/kg/day), 14-day observation
  mortality, clinical signs, body weight, food consumption, macroscopic findings: no treatment-related mortality
In vivo; both, CD-1, mouse, in vivo, po
  NOAEL at 7 days: 3000 mg/kg/day
In vivo; mouse, in vivo, po
  NOAEL: 1.5 g/kg/dose BID
[3]; both, Bama, in vivo, po
  NOAEL at 28 days: 2000 mg/kg/day
[3]; 28 days oral, both sexes
  NOAEL: 1 g/kg/dose BID and 1.0 g/kg/dose BID
[4]
  NOEL above efficacious dose of 0.5 g/kg in FKRP mutant mouse models: approximately 4 fold
  safety margin for proposed clinical starting dose: 227 fold
hERG potassium channels
  IC50: > 2900 µM
[5]; read-out: apparent permeability A-to-B
  Papp A→B at 300 μg/mL: < 0.4 ×10⁻⁶ cm/s
[5]; read-out: apparent permeability B-to-A
  Papp B→A at 300 μg/mL: < 0.1 ×10⁻⁶ cm/s
Caco-2 cells
  P-gp substrate: not a P-glycoprotein (P-gp) substrate
  permeability class: low permeability
[6]; 75 μg/mL (0.49 mM), CD-1 mouse plasma
  % Binding: 44.6 ± 1.3%
[6]; 75 μg/mL (0.49 mM), Gottingen minipig plasma
  % Binding: 44.1 ± 1.0%
[6]; 75 μg/mL (0.49 mM), Sprague-Dawley rat plasma
  % Binding: 43.3 ± 3.4%
[6]; 75 μg/mL (0.49 mM), human plasma
  % Binding: 36.5 ± 1.8%
[6]; 200 μg/mL (1.31 mM), CD-1 mouse plasma
  % Binding: 42.5 ± 0.3%
[6]; 200 μg/mL (1.31 mM), Gottingen minipig plasma
  % Binding: 38.6 ± 2.4%
[6]; 200 μg/mL (1.31 mM), Sprague-Dawley rat plasma
  % Binding: 40.3 ± 0.5%
[6]; 200 μg/mL (1.31 mM), human plasma
  % Binding: 34.6 ± 0.3%
[6]; human plasma, 0.49 and 1.31 mM, range
  fraction unbound: 0.635 to 0.654
